Results as given in US5726177A, “Indole-derived arylpiperazines as ligands for 5HT1 -like, 5HT1B and 5HT1D receptors” (Pierre Fabre Medicament, priority 1993, dated 1998).
Structures can show the parent of a compound that is named as a salt. Where two headings read alike, the source gives them in different places.

Legend:
human 5HT1A receptor = molecular target: T1, human 5HT1A receptor (Homo sapiens, UniProt P08908); assay: Binding to human 5HT1A receptor (HeLa HA7 cell line)
T1 sequence (P08908 1-422): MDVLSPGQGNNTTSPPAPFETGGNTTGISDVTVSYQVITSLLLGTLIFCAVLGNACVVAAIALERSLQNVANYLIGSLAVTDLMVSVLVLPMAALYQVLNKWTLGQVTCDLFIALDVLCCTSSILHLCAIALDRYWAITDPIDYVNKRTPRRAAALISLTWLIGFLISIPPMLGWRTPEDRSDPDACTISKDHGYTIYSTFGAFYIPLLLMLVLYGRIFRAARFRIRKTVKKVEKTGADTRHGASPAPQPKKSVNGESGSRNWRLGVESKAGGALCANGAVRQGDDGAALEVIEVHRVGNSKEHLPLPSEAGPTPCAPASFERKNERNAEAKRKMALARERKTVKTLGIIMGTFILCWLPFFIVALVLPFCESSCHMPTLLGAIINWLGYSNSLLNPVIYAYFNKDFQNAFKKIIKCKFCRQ
Description: The HeLa HA7 cell line expressing the 5HT1A human receptor was obtained from Tulco (Duke Univ., Durham, N.C., USA) and cultured according to the method of Fargin et al., J. Biol. Chem., 264, 14848 (1989).
(§1) The binding of the derivatives of the present invention with human 5HT1Da, 5HT1Db and 5HT1A receptors was studied according to the method described by P. Pauwels and C. Palmier (Neuropharmacology, 33, 67, 1994).
(§2) The incubation media for these binding measurements comprise 0.4 ml of cell membrane preparation, 0.05 ml of a tritiated ligand [[3H]-SCT (final concentration: 2 nM) for the 5HT1Da and 5HT1Db receptors and [3H]-80H-DPAT (final concentration: 1 nM) for the 5HT1A receptor] and 0.05 ml of the molecule to be tested (final concentrations from 0.1 nM to 1000 nM) or 10 μM (final concentration) of serotonin (5HT1Da and 5HT1Db) or 1 μM (final concentration) of spiroxatrin (5HT1A ).

human 5HT1Db receptor [1] = molecular target: T2, human 5HT1Db receptor (Homo sapiens, UniProt P28222); assay: Binding to cloned human 5HT1Db receptor
Description: (§3) Human 5HT1Da and 5HT1Db receptors were cloned according to the sequences published by M. Hamblin and M. Metcalf, Mol. Pharmacol., 40, 143 (1991) and Weinshenk et al., Proc. Natl. Acad. Sci., 89, 3630 (1992).
(§4) The transient transfection and the stable transfection of the genes of these receptors was carried out in Cos-7 and CHO-K1 cell lines by using an electroporator.
as §1, §2

human 5HT1Da receptor = human 5HT1Da receptor (Homo sapiens, UniProt P28221); assay: Binding to cloned human 5HT1Da receptor
Description: as §3, §4, §1, §2

human 5HT1Db receptor [2] = molecular target: T2, human 5HT1Db receptor; assay: cell-based
Description: as §3, §4
The inhibition of the formation of cyclic AMP (stimulated by forskolin) mediated by the human 5HT1Db receptor was studied in CHO-K1 cells transfected by the receptor according to the technique described previously for the 5HT1B receptor (P. Pauwels and C. Palmier, Neuropharmacology, 33, 67, 1994).

[3] = HeLa HA7 cells, [3H]-DPAT ligand 1 nM, read-out: Ki 5HT1A
[4] = human cloned receptor, [3H] ligand 2 nM, read-out: Ki 5HT1Db
[5] = human cloned receptor, [3H] ligand 2 nM, read-out: Ki 5HT1Da
[6] = human 5HT1Db, CHO-K1 cells, read-out: EC50 (Inhibition of the 5HT1Db cyclase stimulated by forskolin)

Chain of human 5HT1Da receptor (P28221 whole entry): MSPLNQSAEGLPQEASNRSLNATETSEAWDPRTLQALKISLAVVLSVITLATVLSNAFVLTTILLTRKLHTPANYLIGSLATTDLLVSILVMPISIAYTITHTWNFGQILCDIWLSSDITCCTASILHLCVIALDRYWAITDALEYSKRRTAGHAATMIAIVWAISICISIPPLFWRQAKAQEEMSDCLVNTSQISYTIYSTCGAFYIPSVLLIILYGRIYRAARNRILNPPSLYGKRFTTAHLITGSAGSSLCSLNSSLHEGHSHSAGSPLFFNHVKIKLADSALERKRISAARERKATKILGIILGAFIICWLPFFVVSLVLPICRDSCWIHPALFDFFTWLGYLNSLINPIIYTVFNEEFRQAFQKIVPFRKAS
T2 sequence (P28222 whole entry): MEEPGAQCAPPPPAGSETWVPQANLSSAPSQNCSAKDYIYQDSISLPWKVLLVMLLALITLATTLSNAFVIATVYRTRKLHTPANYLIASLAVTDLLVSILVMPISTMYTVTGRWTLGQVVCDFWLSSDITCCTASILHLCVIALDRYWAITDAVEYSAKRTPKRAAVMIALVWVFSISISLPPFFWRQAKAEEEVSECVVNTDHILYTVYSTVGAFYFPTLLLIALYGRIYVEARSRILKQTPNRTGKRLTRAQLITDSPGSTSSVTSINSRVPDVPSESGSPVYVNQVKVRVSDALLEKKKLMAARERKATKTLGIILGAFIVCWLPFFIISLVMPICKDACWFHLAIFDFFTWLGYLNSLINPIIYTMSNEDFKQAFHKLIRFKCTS

Row | Compound | Ki (human 5HT1A receptor; [3]) [nM] | Ki (human 5HT1Db receptor [1]; [4]) [nM] | Ki (human 5HT1Da receptor; [5]) [nM] | EC50 (human 5HT1Db receptor [2]; [6]) [nM] | Ki (human 5HT1A receptor) [nM] | Ki (human 5HT1Db receptor [1]) [nM] | Ki (human 5HT1Da receptor) [nM] | EC50 (human 5HT1Db receptor [2]) [nM]
1 | NCCc1c[nH]c2ccc(OCC(=O)N3CCN(c4ccc(NS(=O)(=O)c5ccc([N+](=O)[O-])cc5)cc4)CC3)cc12 [Example 26, N-[4-(4-{2-[3-(2-Aminoethyl)-1H-indol-5-yloxy]acetyl}piperazin-1-yl)phenyl]-4-nitrophenylsulfonamide hydrochloride] | 16.5 | 0.5 | 0.25 | 6.5 | – | – | – | –
2 | NCCc1c[nH]c2ccc(OCC(=O)N3CCN(c4ccc(NC(=O)Oc5ccccc5)cc4)CC3)cc12 [Example 33, N-[4-(4-{2-[3-(2-Aminoethyl)-1H-indol-5-yloxy]acetyl}-piperazin-1-yl)phenyl]phenylcarbamate] | – | – | – | – | 39 | 2 | 2.8 | 9
3 | CS(=O)(=O)Nc1ccc(N2CCN(CCOc3ccc4[nH]cc(CCN)c4c3)CC2)cc1 [Example 41, N-[4-(4-{2-[3-(2-Aminoethyl)-1H-indol-5-yloxy]ethyl}piperazin-1-yl)phenyl]methanesulfonamide hydrochloride] | 28 | 0.7 | 1.1 | 2.6 | – | – | – | –
